Measurements reported in US9416103B2, “Use of the aminoalkylindole JWH-073-M4 and related compounds as neutral CB1 receptor antagonists for the treatment of alcoholism, drug abuse, obesity, and obesity-related diseases” (The Board of Trustees of the University of Arkansas, priority 2012, dated 2016).
Like-named read-outs stand apart in the source and are kept apart here. Marks after values point to notes of the source that are not given here.

Assays:
[1] = biological target: T1, CB1Rs (Mus musculus (Mouse), UniProt P47746); experiment: Competition receptor binding with [3H]CP-55,940 in mouse brain homogenates; details: Table 3; read-out: mCB1R Ki
Experimental: (§1) Mouse brain homogenates for in vitro assays were prepared as previously described. Briefly, whole brains were harvested from B6SJL mice, snap-frozen in liquid nitrogen and stored at −80° C. On the day membrane homogenates were to be prepared, brains were thawed on ice, then pooled in a 40 mL Dounce glass homogenizer and suspended in 5 volumes of ice cold homogenization buffer (50 mM HEPES, pH 7.4, 3 mM MgCl2, and 1 mM EGTA). Brains were then subjected to 10 complete strokes with an A pestle, followed by centrifugation at 40,000×g for 10 minutes at +4° C. Resulting supernatants were discarded, and the pellet was resuspended, homogenized and centrifuged similarly twice more, with supernatants being discarded. For the final resuspension and homogenization with a B pestle, ice-cold 50 mM HEPES was used in place of homogenization buffer, and homogenates were aliquoted and stored at −80° C. Protein concentrations of homogenates were determined using the BCA™ Protein Assay (Thermo Scientific, Rockford, Ill.).
(§2) Competition receptor binding was performed as previously described. […] Reactions were terminated by rapid vacuum filtration through Whatman GF/B glass fiber filters, followed by five washes with ice-cold buffer (50 mM Tris, 0.05% BSA). Filters were immediately placed into 7 mL scintillation vials to which 4 mL of ScintiVerse™ BD Cocktail scintillation fluid (Fisher Scientific, Fair Lawn, N.J.) was added. Bound radioactivity was determined after overnight incubation at room temperature and shaking, by liquid scintillation spectrophotometry with an efficiency of 44% (Tri Carb 2100 TR Liquid Scintillation Analyzer, Packard Instrument Company, Meriden, Conn.). Specific binding is expressed as total binding minus non-specific binding, and is graphed for each data point as a percentage of specific binding occurring in the absence of any competitor.
(§3) Curve fitting and statistical analyses for in vitro experiments were performed using GraphPad Prism™ version 5.0b (GraphPad Software Inc., San Diego, Calif.). The Cheng-Prusoff equation [45] was used to convert the experimental IC50 values obtained from competition receptor binding experiments to Ki values, a quantitative measure of receptor affinity. Non-linear regression for one-site competition was used to determine the IC50 for competition receptor binding. Curve fitting of concentration-effect curves via non-linear regression was also employed to determine the EC50 (a measure of potency) and Emax (a measure of efficacy) for [^35S]GTPγS concentration-effects experiments. […] Data are expressed as mean±SEM. The Student's t-test was used to determine statistical significance (P<0.05) between two groups, while a one-way ANOVA, followed by Tukey's Multiple Comparison post-hoc test, was used to determine statistical significance (P<0.05) between three or more groups.
(§4) The prepared analogues were subjected to in vitro pharmacological testing, which included receptor binding and functional assays at both cannabinoid receptors. Initial receptor binding screens at both CB1Rs and CB2Rs were conducted for the analogues prepared.

[2] = tested on: mice; experiment: Thermoregulation assay, antagonism of JWH-073-induced hypothermia; format: in vivo, mouse; details: 30 minute pretreatment before JWH-073 10 mg/kg
Source text: Our hypothesis is that a dual activity CB1R antagonist/CB2R agonist will reduce the reinforcing effects of EtOH as well as reduce the conditioned rewarding effects of ethanol in mice. The compounds selected will firstly be put through a thermoregulation assay as a screen for potential cannabinoid receptor activity. Thermoregulation will be used as a screen because of the well-established hypothermic effects seen with the use of cannabinoid ligands. This assay was done using glass radiotelemetry probes that were surgically implanted in each mouse, which monitor core temperature in response to drug administration. […] This screen does indeed confirm the in vivo cannabinoid activity of TV-5-249 and TV-6-41 and it also illustrates the evident antagonist effects against agonist induced hypothermia.

[3] = biological target: CB1Rs endogenously expressed in Neuro2A cells (Mus musculus (Mouse), UniProt P47746); experiment: Adenylyl cyclase (AC) inhibition via CB1Rs endogenously expressed in Neuro2A cells; format: cell-based; details: for antagonism of AC-inhibition produced by the CB1R full agonist JWH-073: 1 μM concentration; for inhibition at 10 µM: N2a
[4] = biological target: T2, hCB2Rs (Homo sapiens (Human), UniProt P34972); experiment: Inhibition of forskolin-stimulated cAMP production (adenylyl cyclase) in intact CHO-hCB2R cells; format: cell-based; details: for inhibition at 10 µM: CHO cell transfected with hCB2 receptors, read-out: AC-inhibition at CB2Rs; for inhibition of AC-activity at CB2Rs, concentration-effect: CHO-hCB2 cells
Experimental: Adenylyl cyclases are a family of membrane-bound enzymes that catalyze the intracellular production of the second messenger cAMP from ATP. Adenylyl cyclase activity is modulated by activated G-proteins: Gs-proteins stimulate activity, while Gi/o-proteins are inhibitory. Thus, agonists of G-protein coupled receptors (GPCRs) coupled to Gi/o-proteins, such as hCB2Rs, decrease cAMP production due to inhibition of adenylyl cyclase activity. In this assay, intact CHO-hCB2R cells are preincubated with [^3H]-adenine and treated with forskolin (10 or 30 μM) to stimulate adenylyl cyclase activity.
A functional assay screen for the inhibition of adenylate cyclase (AC) activity was chosen as the subsequent assay. […] Reaching full-receptor occupancy, which is predicted to produce maximal efficacy, is desirable at 10 μM concentration of all the compounds was used.

[5] = tested on: mice; experiment: Alcohol conditioned place preference (CPP); format: in vivo, mouse; details: 10 mg/kg given 1 hour before EtOH pairings
Experimental: Alcohol conditioned place preference assay was done with compounds TV-6-41 and rimonabant. This assay tests the effects of these compounds on conditioned rewarding effects of EtOH. Training of mice involved 4 daily injections of […] EtOH paired with location to one of two chambers (four pairings) after which an increase in time spent in the EtOH-paired chamber was observed, and this points to the development of conditioned place preference (FIG. 24, ‘Pre” bar vs. “Post” bar). […] With the CPP training underway, mice were exposed to succeeding conditioning trials either with 10 mg/kg TV-6-41 or […] 1 hour before EtOH pairings. […] During these studies it was observed that 4 pairings of […] EtOH elicited a CPP of about 400 sec (FIG. 25, “No inj” bar).

[6] = biological target: T2, hCB2Rs; experiment: Competition receptor binding with [3H]CP-55,940 in CHO-hCB2 cell homogenates; details: Table 3; read-out: hCB2R Ki
Experimental: as §2, §4

[7] = tested on: CHO-WT cells; experiment: AC-inhibition assay in CHO-WT cells not transfected with CB2Rs; format: cell-based, Chinese hamster
Experimental: To examine if the observed agonist activity is due to activation of CB2Rs, an additional AC-inhibition assay was performed.

[8] = biological target: T1, CB1Rs; experiment: [35S]GTPγS binding assay (G-protein activation) in mouse brain homogenates; format: biochemical
Experimental: as §1
[^35S]GTPγS binding was performed as previously described. Briefly, 25 μg of mouse brain homogenates were incubated for 30 minutes at 30° C. with 0.1 nM [^35S]GTPγS, 10 μM GDP, and either cannabinoid+/−antagonist, 10 μM unlabeled GTPγS (non-specific binding) or vehicle (total binding), in triplicate, in a volume of 1 mL of buffer containing 20 mM HEPES, 10 mM MgCl2, 100 mM NaCl, 20 units/L adenosine deaminase, 0.05% BSA and the appropriate DMSO (0.1%) and/or ethanol (<0.2%) vehicle. Assay buffer containing 100 mM KCl, instead of 100 mM NaCl, was used to increase basal G-protein activity in experiments examining inverse agonism. Reactions were terminated by quick vacuum filtration through Whatman GF/B glass fiber filters, followed by five washes with ice-cold buffer (20 mM HEPES, 0.05% BSA). Filters were immediately placed into 7 mL scintillation vials to which 4 mL of ScintiVerse™ BD Cocktail scintillation fluid was added. Bound radioactivity was determined after overnight incubation at room temperature and shaking by liquid scintillation spectrophotometry with an efficiency of 93% (Tri Carb 2100 TR Liquid Scintillation Analyzer, Packard Instrument Company, Meriden, Conn.). Specific binding is expressed as picomoles of [^35S]GTPγS bound per mg of protein.
as §3

[9] = biological target: T1, CB1Rs; details: mouse brain homogenates; values previously reported [39]; read-out: [3H]CP binding Ki; cited from earlier work
[10] = tested on: mice; experiment: Oral EtOH self administration, 2-bottle choice procedure; details: daily treatment 10 mg/kg
Source text: These assays are important models for the study of alcoholism because they model several aspects of this condition including voluntary EtOH drinking (SA), conditioned EtOH reward (CPP), abstinence and relapse, which represent extinction and reinstatement of CPP, respectively. Effects of TV-5-249 on voluntary 10% EtOH drinking were studied using a 2-bottle choice procedure described by Keane and coworkers as wells as by Cunningham and coworkers. […] After 5 such observations, which represents a two week washout period, daily treatments with 10 mg/kg TV-5-249 were initiated. […] The last treatment was an everyday injection of vehicle, which is 8% Tween/92% sterile water solution and it represents the solution in which both drugs were dissolved in prior to injections.

## CCCCn1cc(-c2ccc3ccccc3c2)c2cccc(OC)c21 [TV-6-41, 1-butyl-7-methoxy-3-(naphthalen-2-yl)-1H-indole]
[1]
  Ki: 37.3 ± 11.8 nM
[2]
  effect on JWH-073-induced hypothermia: significantly decreased the hypothermic effects of JWH-073
[3]
  antagonism of AC-inhibition produced by the CB1R full agonist JWH-073: antagonize AC inhibition
[3]; 10 μM, Neuro2A cells
  inhibition at 10 µM: 16%
[3]; Neuro2A cells
  inhibition of AC-activity via CB1Rs, concentration-effect: very little inhibition of AC-activity
[4]
  inhibition at 10 µM: 20.8%
  inhibition of AC-activity at CB2Rs, concentration-effect: 40-50%
[5]
  EtOH conditioned place preference: conditioned rewarding effects of EtOH were blocked
[6]
  Ki: 26.5 nM
[7]
  AC-activity in CHO-WT cells not transfected with CB2Rs: neither TV-5-249 nor TV-6-41 significantly modify AC-activity

## CCCCCCC(C)(C)c1ccc(C2CC(O)CC[C@H]2CCCO)c(O)c1 (some centres unmarked) [CP-55,940]
[8]; 100 nM
  [35S]GTPγS Binding, 100 nM: 0.20 ± 0.04 pmol/mg
[8]; 1 μM cannabinoid (100 nM for CP-55,940) co-incubated with CB1R antagonist O-2050 1 μM
  [35S]GTPγS Binding, +O-2050 (1 μM): 0.06 ± 0.03 pmol/mg
[8]; concentration-effect, mouse brain homogenates
  [35S]GTPγS Binding Emax: 0.26 ± 0.01^a pmole/mg
[8]; concentration-effect, mouse brain homogenates, read-out: [35S]GTPγS Binding EC50
  EC50: 7.5 ± 1.8 nM
[3]; 10 μM, Neuro2A cells
  AC-inhibition at CB1Rs: 45%
[9]
  Ki: 0.26 ± 0.1 nM

## Cc1c(C(=O)NN2CCCCC2)nn(-c2ccc(Cl)cc2Cl)c1-c1ccc(Cl)cc1 [rimonabant, 5-(4-Chlorophenyl)-1-(2,4-dichloro-phenyl)-4-methyl-N-(piperidin-1-yl)-1H-pyrazole-3-carboxamide, reference compound]
[10]
  EtOH preference (10% EtOH, 2-bottle choice): decreases EtOH preference
  body weight: does indeed have an effect on body weight
  total fluid consumption: without having any effect on total fluid intake
[5]
  EtOH conditioned place preference: did not elicit a significant preference for the EtOH-paired chamber

## CCCCn1cc(Cc2cccc3ccccc23)c2cccc(OC)c21 [TV-5-249, 1-butyl-7-methoxy-3-(naphthalen-1-ylmethyl)-1H-indole]
[10]
  EtOH preference (10% EtOH, 2-bottle choice): reduced EtOH preference
  body weight: did not decrease body weight
  total fluid consumption: without affecting total fluid consumption
[1]
  Ki: 15.4 ± 2.2 nM
[2]
  effect on JWH-073-induced hypothermia: significantly decreased the hypothermic effects of JWH-073
[3]
  antagonism of AC-inhibition produced by the CB1R full agonist JWH-073: antagonize AC inhibition
[3]; 10 μM, Neuro2A cells
  inhibition at 10 µM: 18%
[3]; Neuro2A cells
  inhibition of AC-activity via CB1Rs, concentration-effect: very little inhibition of AC-activity
[4]
  inhibition at 10 µM: 33.2%
  inhibition of AC-activity at CB2Rs, concentration-effect: 40-50%
[6]
  Ki: 10.9 nM
[7]
  AC-activity in CHO-WT cells not transfected with CB2Rs: neither TV-5-249 nor TV-6-41 significantly modify AC-activity
